This passage reports IC50 results from patent publication US8163771B2, “11 β-HSD1 modulators” (Exelixis, Inc., priority 2008, dated 2012).

Some results are limits rather than exact numbers.

The target of the assay is T1, recombinant human 11 β-HSD1 (Homo sapiens, UniProt P28845).
T1 construct: made in house; host or cells: E. coli
T1 sequence (P28845 whole entry): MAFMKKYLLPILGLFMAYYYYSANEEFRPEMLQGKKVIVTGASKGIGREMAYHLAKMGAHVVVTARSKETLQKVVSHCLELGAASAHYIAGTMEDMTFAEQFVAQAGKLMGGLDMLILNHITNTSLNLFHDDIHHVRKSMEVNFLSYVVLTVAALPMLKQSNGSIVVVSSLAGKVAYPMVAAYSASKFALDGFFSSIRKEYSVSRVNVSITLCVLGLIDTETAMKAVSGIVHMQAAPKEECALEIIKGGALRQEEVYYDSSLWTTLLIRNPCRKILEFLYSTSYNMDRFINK
Briefly: 11 β-HSD1 SPA Assay (Scintillation Proximity Assay). The format is biochemical. The protocol:
(§1) Inhibition of 11 βHSD1 by test compounds was assessed in vitro by a Scintillation Proximity Assay (SPA). The assay was carried out in a 384-well assay plate in a total well volume of 26 μl and contained a mixture of tritiated cortisone substrate (40 nM), NADPH cofactor (1 mM), inhibitor in serial dilutions ([…] to 10 μM), and purified E. coli-expressed recombinant human 11 βHSD1 (30-100 nM) in assay buffer (50 mM HEPES, 100 mM KCl, 5 mM NaCl, and 2 mM MgCl2, pH7.4). Following mixing, the plate was incubated for 2 hours at room temperature. Reactions were stopped by addition of 30 μl of protein A YSi SPA beads (10 mg/ml) that had been pre-incubated with glycyrrhetinic acid (1 mM) and a monoclonal cortisol antibody (3 μg/ml). The plate was then incubated overnight at room temperature prior to reading on a Microbeta counter. Percent inhibition of each compound was calculated based on the background and the maximal signals. Wells that contained substrate without compound or enzyme were used as the background signal, while the wells that contained substrate and enzyme without any compound were used as the maximal signal. The calculation of the IC50 values for the inhibitors was performed by Activity Base.
as §1, with “β-HSD1” for “βHSD1”
`CC(C)(Oc1ccc(F)c(F)c1)C(=O)N[C@H]1C[C@H]2CC[C@@H](C1)N2c1ccc(C(=O)NC2CC2)cn1` [Example 33, N-cyclopropyl-6-[3-endo-({2-[(3,4-difluorophenyl)oxy]-2-methylpropanoyl}amino)-8-azabicyclo[3.2.1]oct-8-yl]pyridine-3-carboxamide]: the IC50 is less than 0.2 µM. With `CC(C)(C(=O)N[C@H]1C[C@H]2CC[C@@H](C1)N2c1ccc(C(=O)NC2CC2)cn1)c1ccccc1Cl` [Example 34, 6-(3-endo-{[2-(2-chlorophenyl)-2-methylpropanoyl]amino}-8-azabicyclo[3.2.1]oct-8-yl)-N-cyclopropylpyridine-3-carboxamide], the IC50 is less than 0.2 µM. The value for `CC(C)(Oc1ccc(F)cc1F)C(=O)N[C@H]1C[C@H]2CC[C@@H](C1)N2c1ccc(C(=O)NC2CC2)cn1` [Example 35, N-cyclopropyl-6-[3-endo-({2-[(2,4-difluorophenyl)oxy]-2-methylpropanoyl}amino)-8-azabicyclo[3.2.1]oct-8-yl]pyridine-3-carboxamide] was less than 0.2 µM; that for `CC(C)(Oc1ccc(Cl)cc1)C(=O)N[C@H]1C[C@H]2CC[C@@H](C1)N2c1ncc(C(=O)NC2CC2)cn1` [Example 36, 2-[3-endo-({2-[(4-chlorophenyl)oxy]-2-methylpropanoyl}amino)-8-azabicyclo[3.2.1]oct-8-yl]-N-cyclopropylpyrimidine-5-carboxamide] was less than 0.2 µM; that for `CC(C)(Oc1ccc(C(F)(F)F)cc1)C(=O)N[C@H]1C[C@H]2CC[C@@H](C1)N2c1ccc(C(=O)NC2CC2)cn1` [Example 37, N-cyclopropyl-6-{3-endo-[(2-methyl-2-{[4-(trifluoromethyl)phenyl]oxy}propanoyl)amino]-8-azabicyclo[3.2.1]oct-8-yl}pyridine-3-carboxamide] was less than 0.2 µM.

For `CC(C)(Oc1ccc(C#N)cc1)C(=O)N[C@H]1C[C@H]2CC[C@@H](C1)N2c1ccc(C(=O)NC2CC2)cn1` [Example 38, 6-[3-endo-({2-[(4-cyanophenyl)oxy]-2-methylpropanoyl}amino)-8-azabicyclo[3.2.1]oct-8-yl]-N-cyclopropylpyridine-3-carboxamide], the IC50 was less than 0.2 µM. Next, `O=C(NC1CC1)c1ccc(N2[C@@H]3CC[C@H]2C[C@@H](NC(=O)C2(c4cccc(F)c4)CC2)C3)nc1` [Example 39, N-cyclopropyl-6-[3-endo-({[1-(3-fluorophenyl)cyclopropyl]carbonyl}amino)-8-azabicyclo[3.2.1]oct-8-yl]pyridine-3-carboxamide]: less than 0.2 µM; `Cc1cc(C(=O)NC2CC2)cnc1N1[C@@H]2CC[C@H]1C[C@@H](NC(=O)C(C)(C)Oc1ccc(Cl)cc1)C2` [Example 40, 6-[3-endo-({2-[(4-chlorophenyl)oxy]-2-methylpropanoyl}amino)-8-azabicyclo[3.2.1]oct-8-yl]-N-cyclopropyl-5-methylpyridine-3-carboxamide]: less than 0.2 µM. For the compound `CC(C)(Oc1ccc(Cl)cc1F)C(=O)N[C@H]1C[C@H]2CC[C@@H](C1)N2c1ccc(C(=O)NC2CC2)cn1` [Example 41, 6-[3-endo-({2-[(4-chloro-2-fluorophenyl)oxy]-2-methylpropanoyl}amino)-8-azabicyclo[3.2.1]oct-8-yl]-N-cyclopropylpyridine-3-carboxamide], the IC50 was less than 0.2 µM. With `CC(C)(Oc1ccc(Cl)c(Cl)c1)C(=O)N[C@H]1C[C@H]2CC[C@@H](C1)N2c1ccc(C(=O)NC2CC2)cn1` [Example 42, N-cyclopropyl-6-[3-endo-({2-[(3,4-dichlorophenyl)oxy]-2-methylpropanoyl}amino)-8-azabicyclo[3.2.1]oct-8-yl]pyridine-3-carboxamide], the IC50 is less than 0.2 µM.

As for `CC(C)(Oc1ccc(Cl)c(F)c1)C(=O)N[C@H]1C[C@H]2CC[C@@H](C1)N2c1ccc(C(=O)NC2CC2)cn1` [Example 43, 6-[3-endo-({2-[(4-chloro-3-fluorophenyl)oxy]-2-methylpropanoyl}amino)-8-azabicyclo[3.2.1]oct-8-yl]-N-cyclopropylpyridine-3-carboxamide], the IC50 is less than 0.2 µM. For the compound `COc1ccc(OC(C)(C)C(=O)N[C@H]2C[C@H]3CC[C@@H](C2)N3c2ccc(C(=O)NC3CC3)cn2)cc1` [Example 44, N-cyclopropyl-6-{3-endo-[(2-methyl-2-{[4-(methyloxy)phenyl]oxy}pro-panoyl)amino]-8-azabicyclo[3.2.1]oct-8-yl}pyridine-3-carboxamide], the IC50 was less than 0.2 µM.

`O=C(NC1CC1)c1ccc(N2[C@@H]3CC[C@H]2C[C@@H](NC(=O)C2(Oc4ccccc4)CC2)C3)nc1` [Example 45, N-cyclopropyl-6-[3-endo-({[1-(phenyloxy)cyclopropyl]carbonyl}amino)-8-azabicyclo[3.2.1]oct-8-yl]pyridine-3-carboxamide]: the IC50 is less than 0.2 µM. The value for `O=C(NC1CC1)c1ccc(N2[C@@H]3CC[C@H]2C[C@@H](NC(=O)C2(Oc4ccccc4)CCC2)C3)nc1` [Example 46, N-cyclopropyl-6-[3-endo-({[1-(phenyloxy)cyclobutyl]carbonyl}amino)-8-azabicyclo[3.2.1]oct-8-yl]pyridine-3-carboxamide] was less than 0.2 µM; that for `O=C(NC1CC1)c1ccc(N2[C@@H]3CC[C@H]2C[C@@H](NC(=O)C2(Oc4ccc(Cl)cc4)CCC2)C3)nc1` [Example 47, 6-{3-endo-[({1-[(4-chlorophenyl)oxy]cyclobutyl}carbonyl)amino]-8-azabicyclo[3.2.1]oct-8-yl}-N-cyclopropylpyridine-3-carboxamide] was less than 0.2 µM. Next, `CC(Oc1ccccc1)C(=O)N[C@H]1C[C@H]2CC[C@@H](C1)N2c1ccc(C(=O)NC2CC2)cn1` (stereo partly drawn) [Example 48, N-cyclopropyl-6-(3-endo-{[2-(phenyloxy)propanoyl]amino}-8-azabicycio[3.2.1]oct-8-yl)pyridine-3-carboxamide]: less than 2 µM; `CC(Oc1ccc(Cl)cc1)C(=O)N[C@H]1C[C@H]2CC[C@@H](C1)N2c1ccc(C(=O)NC2CC2)cn1` (stereo partly drawn) [Example 49, 6-[3-endo-({2-[(4-chlorophenyl)oxy]propanoyl}amino)-8-azabicyclo[3.2.1]oct-8-yl]-N-cyclopropylpyridine-3-carboxamide]: less than 2 µM. The value for `O=C(NC1CC1)c1ccc(N2[C@@H]3CC[C@H]2C[C@@H](NC(=O)C2(c4ccc(Cl)cc4)CCC2)C3)nc1` [Example 50, 6-[3-endo-({[1-(4-chlorophenyl)cyclobutyl]carbonyl}amino)-8-azabicyclo[3.2.1]oct-8-yl]-N-cyclopropylpyridine-3-carboxamide] was less than 0.2 µM; that for `Cc1nc(N2[C@@H]3CC[C@H]2C[C@@H](NC(=O)C(C)(C)Oc2ccc(Cl)cc2)C3)ccc1C(=O)NC1CC1` [Example 51, 6-[3-endo-({2-[(4-chlorophenyl)oxy]-2-methylpropanoyl}amino)-8-azabicyclo[3.2.1]oct-8-yl]-N-cyclopropyl-2-methylpyridine-3-carboxamide] was less than 2 µM.

`CC(C)(Oc1ccc(F)cc1Cl)C(=O)N[C@H]1C[C@H]2CC[C@@H](C1)N2c1ccc(C(=O)NCC(F)(F)F)cn1` [Example 52, 6-[3-endo-({2-[(2-chloro-4-fluorophenyl)oxy]-2-methylpropanoyl}amino)-8-azabicyclo[3.2.1]oct-8-yl]-N-(2,2,2-trifluoroethyl)pyridine-3-carboxamide]: the IC50 was less than 0.2 µM. On to `CC(C)NC(=O)c1ccc(N2[C@@H]3CC[C@H]2C[C@@H](NC(=O)C(C)(C)Oc2ccc(Cl)cc2Cl)C3)nc1` [Example 54, 6-[3-endo-({2-[(2,4-dichlorophenyl)oxy]-2-methylpropanoyl}amino)-8-azabicyclo[3.2.1]oct-8-yl]-N-(1-methylethyl)pyridine-3-carboxamide], for which the IC50 was less than 0.2 µM. Next, `CC(C)(Oc1ccc(Cl)cc1Cl)C(=O)N[C@H]1C[C@H]2CC[C@@H](C1)N2c1ccc(C#N)cn1` [Example 55, N-[8-(5-cyanopyridin-2-yl)-8-azabicyclo[3.2.1]oct-3-endo-yl]-2-[(2,4-dichlorophenyl)oxy]-2-methylpropanamide]: less than 0.2 µM; `CC(C)(Oc1ccc(Cl)cc1Cl)C(=O)N[C@H]1C[C@H]2CC[C@@H](C1)N2c1ccc(C(N)=O)cn1` [Example 56, 6-[3-endo-({2-[(2,4-dichlorophenyl)oxy]-2-methylpropanoyl}amino)-8-azabicyclo[3.2.1]oct-8-yl]pyridine-3-carboxamide]: less than 0.2 µM; `CC(=O)c1ccc(N2[C@@H]3CC[C@H]2C[C@@H](NC(=O)C2(c4ccc(Cl)cc4)CC2)C3)nc1` [Example 57, N-[8-(5-acetylpyridin-2-yl)-8-azabicyclo[3.2.1]oct-3-endo-yl]-1-(4-chlorophenyl)cyclopropanecarboxamide]: less than 0.2 µM.
